Results from ChEMBL document CHEMBL5725872, “Benzofuran compounds for the treatment of hepatitis C” (2018).

Experiment: HCV Replicon Luciferase Assay: To evaluate compound efficacy, titrated compounds were transferred to sterile 384-well tissue culture treated plates, and the plates were seeded with HCV replicon cells (50 μL at a density of 2.4×10^3 cells/well) in DMEM containing 4% FBS (final DMSO concentration at 0.5%). After 3 days incubation at 37° C., cells were analyzed for Renilla Luciferase activity using the EnduRen substrate (Promega cat #E6485) according to the manufacturer's directions. Briefly, the EnduRen substrate was diluted in DMEM and then added to the plates to a final concentration of 7.5 μM. The plates were incubated for at least 1 h at 37° C. then read on a Viewlux Imager (PerkinElmer) using a luminescence program. The 50% effective concentration (EC50) was calculated using the four-parameter logistic Formula noted above. To assess cytotoxicity of compounds, Cell Titer-Blue (Promega) was added to the EnduRen-containing plates and incubated for at least 4 hrs at 37° C. The fluorescence signal from each well was read using a Viewlux Imager. All CC50 values were calculated using the four-parameter logistic Formula.

Structure (SMILES)	EC50 (72 h) [nM]	EC50 [nM]
CNC(=O)c1c(-c2ccc(F)cc2)oc2cc(N(CCF)S(C)(=O)=O)c(-c3cccc(C(=O)N4CC[C@H](O)C4)c3)cc12	> 1000	
CNC(=O)c1c(-c2ccc(F)cc2)oc2cc(N(CCF)S(C)(=O)=O)c(-c3cccc(C(=O)NC(C)(C)C)c3)cc12	< 100	< 100
CNC(=O)c1c(-c2ccc(F)cc2)oc2cc(N(CCF)S(C)(=O)=O)c(-c3cccc(C(=O)N4CCC[C@H]4CO)c3)cc12	100 to 1000	
CNC(=O)c1c(-c2ccc(F)cc2)oc2cc(N(CCCF)S(C)(=O)=O)c(-c3cccc(C(=O)N[C@@H](C)C(F)(F)F)c3)cc12	< 100	
CNC(=O)c1c(-c2ccc(F)cc2)oc2cc(N(C(F)F)S(C)(=O)=O)c(-c3cccc(C(=O)O)c3)cc12	> 10000	
CNC(=O)c1c(-c2ccc(F)cc2)oc2cc(N(CCCF)S(C)(=O)=O)c(-c3cccc(C(=O)N[C@H](C)C(F)(F)F)c3)cc12	< 100	
CNC(=O)c1c(-c2ccc(F)cc2)oc2cc(N(CCCF)S(C)(=O)=O)c(-c3cccc(C(=O)NC(C)(C)C)c3)cc12	< 100	< 100
CC[C@H](NC(=O)c1cccc(-c2cc3c(C(=O)NC)c(-c4ccc(F)cc4)oc3cc2N(CCF)S(C)(=O)=O)c1)C1CC1	< 100	
